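How tested: cells in 96-well plates exposed to compound for 48 hours at five concentrations. Here, GI50 denotes the concentration required for 50% inhibition of growth.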 Activity calls are given as the source filed them. Cut-off read from the data, not from the text of the source: active = GI50 up to about 1.1 µM and inactive = higher. Where a SMILES comes first, the peptide text is derived from it. The star is where a group is joined. Cbz = O=C(OCc1ccccc1)*; NHNH2 = NN*
Key:
Test in all cases: NCI tumour cell line growth inhibition, 48 h
786-0 = test system: 786-0
A498 = test system: A498
ACHN = test system: ACHN
HCC 2998 = test system: HCC 2998
HCT-15 = test system: HCT-15
HOP-92 = test system: HOP-92
K562 = test system: K562
M14 = test system: M14
NCI-H460 = test system: NCI-H460
OVCAR-5 = test system: OVCAR-5
OVCAR-8 = test system: OVCAR-8
SK-MEL-28 = test system: SK-MEL-28
SK-MEL-2 = test system: SK-MEL-2
SNB-75 = test system: SNB-75
U-251 = test system: U-251
UACC-62 = test system: UACC-62
CCRF-CEM = test system: CCRF-CEM
NCI-H522 = test system: NCI-H522
RXF 393 = test system: RXF 393
LOX IMVI = test system: LOX IMVI

Row | Compound | GI50 (786-0) | GI50 (A498) | GI50 (ACHN) | GI50 (HCC 2998) | GI50 (HCT-15) [µM] | GI50 (HOP-92) | GI50 (K562) | GI50 (M14) | GI50 (NCI-H460) | GI50 (OVCAR-5) | GI50 (OVCAR-8) | GI50 (SK-MEL-28) | GI50 (SK-MEL-2) | GI50 (SNB-75) | GI50 (U-251) | GI50 (UACC-62) | GI50 (CCRF-CEM) | GI50 (NCI-H522) | GI50 (RXF 393) | GI50 (LOX IMVI)
1 | CCOC(=O)CCC(NC(=O)OCc1ccccc1)C(=O)NC(CCC(=O)OCC)C(=O)NN (configuration not stated) (Cbz-Glu(OEt)-Glu(OEt)-NHNH2; configuration not given here) | > 100 µM (inactive) | > 100 µM (inactive) | > 100 µM (inactive) | > 100 µM (inactive) | > 100 | > 100 µM (inactive) | > 100 µM (inactive) | > 100 µM (inactive) | > 100 µM (inactive) | > 100 µM (inactive) | > 100 µM (inactive) | > 100 µM (inactive) | > 100 µM (inactive) | > 100 µM (inactive) | > 100 µM (inactive) | > 100 µM (inactive) |  |  |  | 
2 | O=C(c1ccco1)C1CC(c2ccc3ccccc3c2O)=NN1 (configuration not stated) | 98.9 µM (inactive) | > 100 µM (inactive) | > 100 µM (inactive) | > 100 µM (inactive) | 50.6 | > 100 µM (inactive) | 38.6 µM (inactive) | 54.8 µM (inactive) | > 100 µM (inactive) | > 100 µM (inactive) | 83.2 µM (inactive) | > 100 µM (inactive) | 71 µM (inactive) | > 100 µM (inactive) | > 100 µM (inactive) | > 100 µM (inactive) | 16.8 µM (inactive) | > 100 µM (inactive) | > 100 µM (inactive) | 
3 | NCc1cccc(O)c1O | > 100 µM (inactive) | > 100 µM (inactive) | > 100 µM (inactive) |  | > 100 | > 100 µM (inactive) | > 100 µM (inactive) | > 100 µM (inactive) | > 100 µM (inactive) | > 100 µM (inactive) | > 100 µM (inactive) | > 100 µM (inactive) | > 100 µM (inactive) | > 100 µM (inactive) | > 100 µM (inactive) | > 100 µM (inactive) | 55.3 µM (inactive) | > 100 µM (inactive) | > 100 µM (inactive) | > 100 µM (inactive)
4 | Cn1c2c(c3ccccc31)CC(=O)N1CCCC(C1)CC21OCCO1 (configuration not stated) | > 100 µM (inactive) | > 100 µM (inactive) | > 100 µM (inactive) | > 100 µM (inactive) | > 100 | > 100 µM (inactive) | > 100 µM (inactive) | > 100 µM (inactive) | > 100 µM (inactive) | > 100 µM (inactive) | > 100 µM (inactive) | > 100 µM (inactive) | > 100 µM (inactive) | > 100 µM (inactive) | > 100 µM (inactive) | > 100 µM (inactive) | > 100 µM (inactive) |  | 13.6 µM (inactive) | > 100 µM (inactive)
5 | CCCCCCCCCCOC(=O)c1cc[n+](C)cc1 | 17.6 µM (inactive) | 15.6 µM (inactive) | 18.6 µM (inactive) |  | 15.9 | 15.8 µM (inactive) | 16.3 µM (inactive) | 18 µM (inactive) | 21 µM (inactive) | 13.6 µM (inactive) | 17.2 µM (inactive) | 17.4 µM (inactive) | 17.3 µM (inactive) | 19.3 µM (inactive) | 15.7 µM (inactive) | 16.8 µM (inactive) | 17.5 µM (inactive) | 16.1 µM (inactive) | 19.7 µM (inactive) | 17.6 µM (inactive)
6 | COc1cc(/C=C2\N=C(c3ccccc3)N(c3ccc(S(=O)(=O)Nc4nccs4)cc3)C2=O)ccc1O | > 100 µM (inactive) | > 100 µM (inactive) | > 100 µM (inactive) |  | 57.5 | 40.7 µM (inactive) | 55.8 µM (inactive) | > 100 µM (inactive) | > 100 µM (inactive) | > 100 µM (inactive) | > 100 µM (inactive) |  | > 100 µM (inactive) | 62.8 µM (inactive) | 75.5 µM (inactive) | 43.9 µM (inactive) | 70.5 µM (inactive) | 50.4 µM (inactive) | 62.2 µM (inactive) | 40.3 µM (inactive)
7 | CCCCNC(=O)Nc1c(C(N)=O)c2n(c1C(=O)OCC)CCCCC2 | > 100 µM (inactive) | > 100 µM (inactive) | > 100 µM (inactive) | > 100 µM (inactive) | > 100 | > 100 µM (inactive) | > 100 µM (inactive) | > 100 µM (inactive) | > 100 µM (inactive) |  | > 100 µM (inactive) | > 100 µM (inactive) | > 100 µM (inactive) | > 100 µM (inactive) | > 100 µM (inactive) | > 100 µM (inactive) | > 100 µM (inactive) |  | > 100 µM (inactive) | > 100 µM (inactive)
8 | CCCCCCCCCCCc1noc2c1C(=O)C(O)CC2 (configuration not stated) | 17.9 µM (inactive) | 34.9 µM (inactive) | 32.8 µM (inactive) |  | 20.7 | 20.1 µM (inactive) | 17.2 µM (inactive) | 27.2 µM (inactive) | 20 µM (inactive) | 18.2 µM (inactive) | 18.9 µM (inactive) | 23.8 µM (inactive) | 17.5 µM (inactive) | 24.1 µM (inactive) | 14.6 µM (inactive) | 16.4 µM (inactive) | 25.1 µM (inactive) | 20.5 µM (inactive) | 14.2 µM (inactive) | 18.1 µM (inactive)
9 | OC1(c2ccc(Cl)cc2)c2c(ccc3c2OCO3)C2=NCCN21 (configuration not stated) | 62.2 µM (inactive) | 20.1 µM (inactive) | 38 µM (inactive) |  | 52.7 | 16.7 µM (inactive) | 26.2 µM (inactive) | 16.6 µM (inactive) | 40.6 µM (inactive) | 65.3 µM (inactive) | 67.5 µM (inactive) | 17.9 µM (inactive) | 21.2 µM (inactive) | 6.14 µM (inactive) | 44.9 µM (inactive) | 19 µM (inactive) | 37.9 µM (inactive) |  | 26.7 µM (inactive) | 30.5 µM (inactive)
10 | CSc1nc(-c2ccc(C)cc2)c(C#N)c(=O)[nH]1 | > 100 µM (inactive) | > 100 µM (inactive) | > 100 µM (inactive) | > 100 µM (inactive) | > 100 | 85.3 µM (inactive) | > 100 µM (inactive) | > 100 µM (inactive) | > 100 µM (inactive) | > 100 µM (inactive) | > 100 µM (inactive) | > 100 µM (inactive) | > 100 µM (inactive) | 43.7 µM (inactive) | > 100 µM (inactive) | > 100 µM (inactive) | > 100 µM (inactive) | > 100 µM (inactive) | > 100 µM (inactive) | 
11 | CN(C)C(=O)OC1=CC2CCC(C1)N2C (configuration not stated) | > 100 µM (inactive) | > 100 µM (inactive) | 82 µM (inactive) |  | 48.3 | > 100 µM (inactive) | 88.7 µM (inactive) | 79.1 µM (inactive) | 32.4 µM (inactive) | > 100 µM (inactive) | > 100 µM (inactive) | > 100 µM (inactive) | > 100 µM (inactive) | > 100 µM (inactive) | 87.3 µM (inactive) | > 100 µM (inactive) | 28.8 µM (inactive) | > 100 µM (inactive) | > 100 µM (inactive) | 61.4 µM (inactive)
12 | CCOc1ccc(NC(=O)/C(=C\c2ccc(C)cc2)C(C)=O)cc1 | > 100 µM (inactive) | > 100 µM (inactive) | > 100 µM (inactive) | > 100 µM (inactive) | > 100 | > 100 µM (inactive) | > 100 µM (inactive) | > 100 µM (inactive) |  | > 100 µM (inactive) | > 100 µM (inactive) | > 100 µM (inactive) | > 100 µM (inactive) | > 100 µM (inactive) | > 100 µM (inactive) | > 100 µM (inactive) | > 100 µM (inactive) | > 100 µM (inactive) |  | > 100 µM (inactive)
13 | COc1ccc(C2=Nc3ccccc3SC(C)C2)cc1OC (configuration not stated) | 16.3 µM (inactive) | 23.8 µM (inactive) | 22.1 µM (inactive) | 18.6 µM (inactive) | 17.8 | 38.1 µM (inactive) | 25.5 µM (inactive) | 18.6 µM (inactive) | 19.2 µM (inactive) | 24.7 µM (inactive) | 22.8 µM (inactive) | 24.6 µM (inactive) | 30.3 µM (inactive) | 14.3 µM (inactive) | 17.2 µM (inactive) | 17.8 µM (inactive) | 31.8 µM (inactive) | 17.4 µM (inactive) |  | 17.9 µM (inactive)
14 | NC1CNC(=O)c2c(Cl)sc(Cl)c21 (configuration not stated) | > 100 µM (inactive) | > 100 µM (inactive) | > 100 µM (inactive) | > 100 µM (inactive) | > 100 | > 100 µM (inactive) | > 100 µM (inactive) | > 100 µM (inactive) | > 100 µM (inactive) | > 100 µM (inactive) | > 100 µM (inactive) | > 100 µM (inactive) | > 100 µM (inactive) | > 100 µM (inactive) | > 100 µM (inactive) | > 100 µM (inactive) | > 10 µM (inactive) |  | > 100 µM (inactive) | > 100 µM (inactive)
15 | CSC(=S)N/N=C(\C)c1ccc(S(=O)(=O)N(C)c2ccccc2)cc1 | 34.4 µM (inactive) | 89.7 µM (inactive) | 22.6 µM (inactive) | > 100 µM (inactive) | 34.2 | 23.8 µM (inactive) | 13.9 µM (inactive) | 25.5 µM (inactive) | 5.13 µM (inactive) | > 100 µM (inactive) | 31.6 µM (inactive) | 34.8 µM (inactive) | 35.3 µM (inactive) | 39.3 µM (inactive) | 24.7 µM (inactive) | 43.2 µM (inactive) |  |  | 77.8 µM (inactive) | 18.3 µM (inactive)

Source: ChEMBL document CHEMBL1201862, “PubChem BioAssay data set” (2004)
